Calls of active or inactive are those of the source. Cut-off read from the data, not from the text of the source: active = inhibition of 80% or more and inactive = less.

The assay has as its system Naegleria gruberi. Description: microbe, parasite or virus in culture. It is filed as functional. As to conditions: NEG-M, CONC 10 uM.
Description: Growth inhibiting activity of Naegleria gruberi in vitro
For `Cc1ccc(S(=O)(=O)n2cc(-c3ccnc(N)c3)c3cc(Br)cnc32)cc1`, the inhibition at 10 µM was 53.9% (not active).
`Nc1nccc2ccc(Oc3ccncc3)cc12`: the inhibition at 10 µM is recorded as 3% (not active).
For `O=C(NCCc1c[nH]c2ccccc12)c1cc2ccccc2oc1=O`, the inhibition at 10 µM is given as 33.7% (not active).
Take `CC(C)(C)n1nc(Cc2cccc3ccccc23)c2c(N)ncnc21`: the inhibition at 10 µM is given as 13.8% (not active).
In the case of `c1ccc(Oc2ccc(-c3cc(CN4CCOCC4)[nH]n3)cc2)cc1` it was 3.2% (not active); in that of `C[C@]1(COc2ccc(N3CCC(Oc4ccc(OC(F)(F)F)cc4)CC3)cc2)Cn2cc([N+](=O)[O-])nc2O1`, 94.1% (active); in that of `O=C1Nc2ccc(Br)cc2C12NCCc1c2[nH]c2ccccc12` (stereo not drawn), 33.5% (not active).
Take `CO/N=C(\C(=O)OC)c1ccccc1CO/N=C(\C)c1cccc(C(F)(F)F)c1`: the inhibition at 10 µM was 43.9% (not active).
`O=C1O[C@@H](CO)CN1c1cc(F)c(C2=CCN(Cc3ccccc3)CC2)c(F)c1`: the inhibition at 10 µM is 8.3% (not active).
In the case of `CCCCN(CCCC)c1c(C#N)cc(S(=O)(=O)Nc2ccccc2)cc1C#N`, the inhibition at 10 µM is recorded as 23.9% (not active).
Then `CC(C)/N=c1\cc2n(-c3ccc(Cl)cc3)c3ccccc3nc-2cc1Nc1ccc(Cl)cc1` [CLOFAZIMINE], with 67.9% (not active).
Take `CC(=O)N(CCN(C(=O)c1ccc(F)cc1)c1ccccc1)c1ccccc1`: the inhibition at 10 µM is 21.3% (not active).
On to `CN1CCN(S(=O)(=O)c2ccc(-c3ccc4c(Nc5ccc6nn[nH]c6c5)ccnc4c3)cc2)CC1`, for which the inhibition at 10 µM is on record as 10.8% (not active).
Then `CCCc1ccc(S(=O)(=O)Nc2ccc(CN3CCN(CC4CC4)CC3)cc2)cc1`, with 30.3% (not active); and `O=C(Nc1cnc2ccccc2c1)c1cccc(-n2cnnn2)c1`, with 9.8% (not active).
As for `CN1CCN(CCCOc2ncc(Nc3ncc(-c4ccc(C(F)(F)F)c(F)c4)nc3C(N)=O)cn2)CC1`, the inhibition at 10 µM is listed as 12.9% (not active).
For `N#Cc1ccc(-c2ccc(OCC(N)=O)cc2)cc1`, the inhibition at 10 µM is listed as 33.5% (not active).
On to `CCOc1ccc2cc(-c3nn(C(C)(C)C)c(N)c3C(N)=O)cnc2c1`, for which the inhibition at 10 µM is 92.5% (active).
For the compound `COc1ccccc1OCCCCn1c(C2CC2)nc2ccccc21`, the inhibition at 10 µM is recorded as 42.6% (not active).
In the case of `CN(C(=O)c1cc2c(-c3cncnc3)cccc2[nH]1)c1ccccc1`, the inhibition at 10 µM is reported as 27.7% (not active).
For the compound `CC(C)(C)OC(=O)N1CCC(Cn2nc(-c3cnc4ccccc4c3)c3c(N)ncnc32)CC1`, the inhibition at 10 µM was 57.8% (not active).
As for `Cc1cc(NCCc2ccccc2)nc(NC(=N)Nc2ccc(Cl)cc2)n1`, the inhibition at 10 µM is 19.6% (not active).
In the case of `COc1ccc(CCN2CCC(NCc3cccc(N(C)C)c3)CC2)cc1`, the inhibition at 10 µM is given as 8.7% (not active).
Take `c1ccc(Oc2ccc(-c3cc(C4CCOCC4)[nH]n3)cc2)cc1`: the inhibition at 10 µM is reported as 34.2% (not active).
Regarding `NC(=O)c1cc(-c2ccsc2)ccc1OCCOc1ccccc1`, the inhibition at 10 µM is 43.7% (not active).
As for `Cc1cc(Cl)ccc1NC(=O)CCc1ccc(S(=O)(=O)NCC(C)C)cc1`, the inhibition at 10 µM is 13.9% (not active).
Take `CC(C)n1nc(-c2cc3c(Cl)cccc3[nH]2)c2c(N)ncnc21`: the inhibition at 10 µM is 72.2% (not active).
As to `c1cc(C2=NCCN2)cc(-c2cc(-c3ccc(C4=NCCN4)cc3)no2)c1`, the inhibition at 10 µM is recorded as 24.2% (not active).
In the case of `N#CCN(CCCCN1CCN(c2ccc(F)cc2)CC1)C(=O)OCc1ccccc1` it was 21.3% (not active); in that of `CNc1snc(C)c1C(=O)NCCOc1ccc(OC)cc1`, 40.5% (not active); in that of `COc1cccc(CC(=O)N2CCC(n3c(C)nc4ccc(F)cc43)CC2)c1`, 19.3% (not active).
On to `FC(F)(F)c1ccc(N(c2cccnc2)C2CCN(c3ccc(C(F)(F)F)cn3)CC2)cc1`, for which the inhibition at 10 µM is 80.4% (active).
`COc1ccc(-c2nnc3ccc(-c4cccc(C(C)C)c4)cn23)cc1OC`: the inhibition at 10 µM is 26.7% (not active).
On to `Cn1ncc2c(N3CCOCC3)nc(NCCc3c[nH]c4ccccc34)nc21` [TDR79432], for which the inhibition at 10 µM is given as 45.9% (not active).
In the case of `CO[C@H]1/C=C\O[C@@]2(C)Oc3c(C)c(O)c4c(O)c(/c(=C/NN5CCN(C)CC5)c(O)c4c3C2=O)=N\C(=O)/C(C)=C\C=C/[C@H](C)[C@H](O)[C@@H](C)[C@@H](O)[C@@H](C)[C@H](OC(C)=O)[C@@H]1C`, the inhibition at 10 µM is listed as 0% (not active).
In the case of `O=C(c1[nH]nc2c1CCCC2)N1CCN(Cc2ccc3c(c2)OCO3)CC1` it was 29.5% (not active); in that of `Cc1ccc(-c2cc(C(=O)Nc3cccnc3)c3cc(Br)ccc3n2)cc1`, 16.8% (not active).
In the case of `COC(=O)c1c(NC(=O)c2c(F)c(F)c(F)c(F)c2F)sc2c1CCCCC2` it was 30.9% (not active); in that of `O=C(Nc1ccc2c(c1)B(O)OC2)c1ccccc1C(F)(F)F`, 89.8% (active); in that of `CC(C)n1ncc2c(C(=O)NCC(c3cccs3)N3CCOCC3)cc(-c3ccccc3)nc21` (stereo not drawn), 48.6% (not active).
In the case of `c1ccc(Oc2ccc(-c3cncc(-c4ccc5[nH]ccc5c4)n3)cc2)cc1` it was 11.4% (not active); in that of `Cc1ccc(Oc2ccc(NC(=O)CNc3ccccc3N3CCCC3=O)cc2)cc1`, 18.8% (not active); in that of `O=C1N(Cc2cc3ccccc3s2)CC2CN(Cc3ccccc3)CCN12` (stereo not drawn), 34.3% (not active).
Take `Cc1ccc2c(c1C)NC(=O)C21NN=C(c2ccccc2)S1` (stereo not drawn): the inhibition at 10 µM is 20.7% (not active).
Regarding `CS(=O)(=O)N1CCC(Cn2nc(Cc3cccc4ccccc34)c3c(N)ncnc32)CC1`, the inhibition at 10 µM is 30.6% (not active).
Turning to `Cc1nn(C)cc1C(C)Nc1nncc(-c2ccc(C(F)(F)F)cc2)n1` (stereo not drawn), the inhibition at 10 µM was 0% (not active).
In the case of `Nc1nc(N)c2c3c(sc2n1)CN(Cc1ccccc1)CC3` it was 2.1% (not active); in that of `COCC(C)NC(=O)CSc1ncnc2sc(-c3ccccc3)cc12` (stereo not drawn), 45.7% (not active); in that of `O=C(Nc1ccc(N2CCNCC2)nc1)c1oc(-c2ccccc2)nc1C(F)(F)F`, 15.4% (not active).
Then `O=C(NCCc1ccccc1)c1cc(-c2cccnc2)cnc1NCC1CC1`, with 37.7% (not active).
In the case of `O=C(OCc1ccccc1)N1CCC(c2cc(-c3ccncc3)c(-c3ccc(F)cc3)[nH]2)CC1` it was 42.4% (not active); in that of `Clc1ccc(CCNc2cc(-c3ccccc3)nc3ncnn23)cc1`, 44.5% (not active); in that of `NCCC(O)C(=O)N[C@@H]1C[C@H](N)[C@@H](OC2O[C@H](CN)[C@@H](O)[C@H](O)[C@H]2O)[C@H](O)C1OC1O[C@H](CO)[C@@H](O)[C@H](N)[C@H]1O` (stereo partly drawn), 0% (not active).
Take `O=C(NCc1ccco1)N1CCN(Cc2ccc(Cl)s2)CC1`: the inhibition at 10 µM is reported as 39.6% (not active).
In the case of `N=C(N)Nc1ccc(-c2ccc(-c3ccc(NC(=N)N)cc3Cl)o2)c(Cl)c1`, the inhibition at 10 µM is on record as 24% (not active).
With `O=C(Nc1ccccc1-c1nc2c(C(=O)O)cccc2o1)c1ccccc1`, the inhibition at 10 µM was 39.5% (not active).
`Cc1cc(Nc2ccc(C(F)(F)F)cc2)n2ccnc2n1`: the inhibition at 10 µM is on record as 0% (not active).
In the case of `CC1(C)OB(O)c2ccc(C3=NOC(c4cc(Cl)c(F)c(Cl)c4)(C(F)(F)F)C3)cc21` (stereo not drawn) it was 62.5% (not active); in that of `COc1cccc(-c2cc3c(Nc4cccnc4)nccc3[nH]2)c1`, 10% (not active); in that of `COc1ccc(OC)c(NCc2ccc3nc(N)nc(N)c3c2Cl)c1`, 33.6% (not active).
Consider `COc1ccc(-c2cnc3ccc(N4CCCC4)nn23)cc1OC`, for which the inhibition at 10 µM is given as 51.2% (not active).
Take `CC(C)(C)C(=O)N(CCCCCCN1C[C@H](O)[C@@H](O)[C@H](O)[C@H]1CO)C1CCCCCC1`: the inhibition at 10 µM is on record as 0.1% (not active).
For `Cc1nnc(NCc2cccc(Cl)c2)c2ccccc12`, the inhibition at 10 µM is recorded as 38.4% (not active).
Consider `Cn1c(=O)c2c(S(C)(=O)=O)snc2n(C)c1=O`, for which the inhibition at 10 µM is on record as 72.3% (not active).
In the case of `O=C(c1ccc(NCCO)cc1)C1C[C@H]1c1ccc(Cl)cc1` (stereo partly drawn) it was 28.7% (not active); in that of `CC(C)(C)n1nc(Cc2ccc(F)c(Cl)c2)c2c(N)ncnc21`, 32% (not active); in that of `O=C(c1cc2ccccc2o1)N1CCN(Cc2ccc3c(c2)OCO3)CC1`, 28.6% (not active).
`Cc1cc(C)n2nc(C(=O)Nc3cc(C(F)(F)F)ccc3N3CCOCC3)nc2n1`: the inhibition at 10 µM was 38% (not active).
Take `O=C(Nc1ccccc1)c1ccc(-c2cc3ccncc3cc2OC2CCNCC2)s1`: the inhibition at 10 µM was 12.6% (not active).
For `CCOC(=O)c1cc(-c2csc(Nc3c(C)cc(C)cc3C)n2)on1`, the inhibition at 10 µM is 33.4% (not active).
Regarding `COc1cccc(NC(=O)c2c(NC(=O)c3cccnc3)sc3c2CCC3)c1`, the inhibition at 10 µM was 62.6% (not active).
In the case of `O=C(C1CCN(c2cc(-n3cccc3)ncn2)CC1)N1CCc2ccccc2C1`, the inhibition at 10 µM was 13.5% (not active).
In the case of `N=C(N)c1ccc(-c2cc(-c3ccccc3)on2)cc1` it was 26.5% (not active); in that of `CN1CCC(c2cc(-c3ccncc3)c(-c3ccc(F)cc3)[nH]2)CC1`, 0% (not active); in that of `N=C(N)Nc1ccc(-c2ccc(-c3ccc(N=C(N)N)c(Cl)c3)o2)cc1Cl`, 22.3% (not active).
In the case of `CCOC(=O)NC(=O)c1ccsc1NC(=O)c1nc2ccccc2s1`, the inhibition at 10 µM was 89.3% (active).
Turning to `CC(=O)Oc1ccccc1C(=O)Nc1ncc([N+](=O)[O-])s1` [NITAZOXANIDE], the inhibition at 10 µM is given as 62.7% (not active).
Take `COc1cc(C2=NCCN2)cc2cc(-c3ccc(C4=NCCN4)cc3)oc12`: the inhibition at 10 µM is listed as 11.2% (not active).

These data come from ChEMBL document CHEMBL4513101, “Naegleria gruberi Pathogen Box compounds screening” (2021).
